Source: patent US20100291089A1, “LIGAND OF REGULATING IMMUNE RESPONSE, AND USE THEREOF IN TREATING AN IMMUNE RESPONSE-RELATED DISEASE” (POSTECH ACADEMY-INDUSTRY FOUNDATION, priority 2005, published 2010)
Where no end group is shown, it is not given here.

Columns and labels:
Type in all cases: cell-based
human monocytes = test: Intracellular calcium signaling in human monocytes; settings: 1 μM WRW4
Text: 1.3. Preparation of Neutrophils and Monocytes Peripheral blood was collected from healthy donors (male, 20˜30 years old, venous blood collection). Human neutrophils were isolated by dextran sedimentation followed by hypotonic erythrocyte lysis and lymphocyte separation medium gradient, as described in “Bae, Y. S., H. Bae, Y. Kim, T. G. Lee, P. G. Suh, and S. H. Ryu. 2001. Identification of novel chemoattractant peptides for human leukocytes. Blood 97:2854-2862”. Isolated human neutrophils were used promptly. Peripheral blood mononuclear cells (PBMCs) were separated on a Histopaque-1077 gradient (Bae, Y. S., H. Bae, Y. Kim, T. G. Lee, P. G. Suh, and S. H. Ryu. 2001. Identification of novel chemoattractant peptides for human leukocytes. Blood 97:2854-2862). […]
Intracellular calcium concentrations ([Ca^2+]i) were determined using Grynkiewicz's method with fura-2/AM, as described in “Grynkiewicz, G., M. Poenie, and R. Y. Tsien. […] Fluorescence changes at 340 and 380 nm using a common emission wavelength of 500 nm were measured, and fluorescence ratios were converted to [Ca2+]i, as described in above Grynkiewicz, G. et al.

human neutrophils [1] = test: Western blot for ERK phosphorylation in human neutrophils; settings: pretreating with 1 μM WRW4
Protocol: (§1) Neutrophils were stimulated with 1 μM of PACAP27 (SEQ ID NO:1), PACAP38 (SEQ ID NO:2), or VIP (SEQ ID NO:3), and calcium concentrations were measured for 10 min. In order to measure EKR phosphorylation, each peptide hormones was used with 1 μM concentrations for 5 min. For cAMP measurement, each peptide hormones was used with 1 μM concentrations for 10 min.
ERK phosphorylation levels were measured by Western blotting, as described in above Bae, Y. S. et al. Cells (2×10^6/assay) were stimulated with the indicated concentration of agonist for 5 minutes, then washed with serum-free RPMI 1640 medium and lysed in lysis buffer {20 mM HEPES (pH 7.2), 10% glycerol, 150 mM NaCl, 1% Triton X-100, 1 mM PMSF, […], 50 mM NaF, and 1 mM Na3VO4}. Detergent-insoluble materials were pelleted by centrifugation (12,000×g, 15 minutes, 4° C.), and the soluble supernatant fraction was removed and either stored at −80° C. or used immediately. Laemmli sample buffer was added to these fractions and boiled (5 minutes). Proteins were separated by SDS-PAGE and transferred to nitrocellulose membranes (Schleicher and Schuell, BA85). Blocking was performed using TBS buffer (10 mM Tris/HCl, pH 7.5, 150 mM NaCl, and 0.05% Tween-20) containing 5% nonfat dry milk. Membranes were probed with a phospho-ERK specific primary antibody or ERK2 antibody for 3 hours at room temperature. […]

human neutrophils [2] = test: Neutrophil chemotaxis assay (multiwell chamber, checkerboard analysis); settings: 1 μM WRW4, 1 μM PACAP27
Protocol: Chemotaxis assays were performed using multiwell chambers (Neuroprobe Inc., Gaithersburg, Md.) (Bae, Y. S., H. Bae, Y. Kim, T. G. Lee, P. G. Suh, and S. H. Ryu. 2001. Blood 97:2854-2862). Prepared human neutrophils were suspended in RPMI 1640 medium at a 1×10^6 cells/ml, and 25 μl of this suspension was placed into the upper well of a chamber separated from the lower chamber, which was filled with testing solutions, by a […] filter (not coated with polyvinylpyrrolidone). After incubating for 2 hours at 37° C., non-migrated cells were removed by scraping, and cells that had migrated across the filter were dehydrated, fixed, and stained with hematoxylin (Sigma, St. Louis, Mo.). Stained cells in five randomly chosen high power fields (HPF) (400×) were then counted.
Neutrophil migration was analyzed for 2 hours across a polycarbonate membrane. Various concentrations of PACAP27 (SEQ ID NO:1) as shown in the following Table 1 were placed in the upper and lower compartments of the chambers. Data are presented as means±SE for migrated neutrophils cells per field counted in triplicate of two independent experiments.

human neutrophils [3] = test: Intracellular calcium mobilization (fura-2) in human neutrophils
Protocol: as §1
Intracellular calcium concentrations ([Ca^2+]i) were determined using Grynkiewicz's method with fura-2/AM, as described in “Grynkiewicz, G., M. Poenie, and R. Y. Tsien. 1985. […] J. Biol. Chem. 260:3440-3450”. Briefly, the cells prepared in Example 1.2 were incubated with 3 µM fura-2/AM at 37° C. for 50 minutes in fresh serum free RPMI 1640 medium with continuous stirring. The incubated cells (2×10^6) were aliquoted for each assay in Ca^2+-free Locke's solution (154 mM NaCl, 5.6 mM KCl, 1.2 mM MgCl2, 5 mM HEPES (pH 7.3), 10 mM glucose, and 0.2 mM EGTA). Fluorescence changes at 340 and 380 nm using a common emission wavelength of 500 nm were measured, and fluorescence ratios were converted to [Ca2+]i, as described in above Grynkiewicz, G. et al.

human neutrophils [4] = test: FACS analysis of surface CD11b expression on neutrophils; settings: 1 μM WRW4, 10 μM PACAP27
Protocol: Purified neutrophils were incubated with indicated concentration of PACAP27 (SEQ ID NO:1) for 1 hour. Cells (2×10^5/assay) were washed with FACS buffer (PBS containing 1% BSA and 0.1% sodium azide), incubated with human AB type serum for 10 minutes on ice, and stained with PE-labeled human CD11b antibody (BD PharMingen, San Diego, Calif.). They were then analyzed using a FACSCalibur system (BD Biosciences, San Jose, Calif.), as described in “Harfi, I., S. D'Hondt, F. Corazza, and E. Sariban. 2004. J. Immunol. 173:4154-4163”.

human neutrophils [5] = test: Intracellular cyclic AMP measurement in neutrophils; settings: 1 μM WRW4, 10 μM PACAP27 for 10 minutes
Protocol: Neutrophils were stimulated with 1 μM of PACAP27 (SEQ ID NO:1), PACAP38 (SEQ ID NO:2), or VIP (SEQ ID NO:3), and calcium concentrations were measured for 10 min. In order to measure EKR phosphorylation, each peptide hormones was used with 1 μM concentrations for 5 min. […]
Briefly, neutrophils were isolated and resuspended at 5×10^6 cells/ml in Hank's balanced salt solution (HBSS) for 5-10 minutes in a shaking incubator. The HBSS was then replaced with […] HBSS containing 500 µM isobutylmethylxanthine (IBMX; a cAMP phosphodiesterase inhibitor) for 5 minutes, and then cells were stimulated for 10 minutes. The reaction was terminated by adding 1 ml of ethanol, and cAMP levels were determined by using cAMP measuring kit (Neurunex, Pohang, Korea) according to the manufacturer's instructions.

Substance: WRWWWW [WRW4]
- inhibition of PACAP27-induced calcium signaling in human monocytes (human monocytes): successfully inhibited
- inhibition of PACAP27-induced ERK-phosphorylation (human neutrophils [1]): completely inhibited
- inhibition of PACAP27-induced neutrophil chemotaxis (human neutrophils [2]): completely inhibited
- effect on PACAP27 priming of fMLP-induced calcium signaling (human neutrophils [3]; 1 M WRW4): abolished
- effect on fMLP-induced calcium signaling (human neutrophils [3]; 1 M WRW4, 10 nM fMLP): not affected
- concentration that completely inhibits PACAP27-induced neutrophil activation (human neutrophils [3]; human neutrophils): ≥ 100 nM
- inhibition of PACAP27-induced [Ca2+]i up-regulation (human neutrophils [3]; human neutrophils, pretreatment 30 seconds, 1 μM PACAP27): successfully inhibited
- inhibition of PACAP27-induced CD11b up-regulation (human neutrophils [4]): inhibited completely
- inhibition of PACAP27-induced cAMP elevation (human neutrophils [5]): failed to inhibit
